Counter-ions that a name gives are not always drawn. Like-named read-outs stand apart in the source and are kept apart here.
Assays:
HIV-1 RT = HIV-1 RT (Human immunodeficiency virus type 1 group M subtype B, UniProt P03366); experiment: HIV Reverse Transcriptase Assay: Inhibitor IC50 Determination; type: biochemical
Experimental: HIV Reverse Transcriptase Assay: Inhibitor IC50 Determination
HIV-1 RT assay was carried out in 96-well Millipore MultiScreen MADVNOB50 plates using purified recombinant enzyme and a poly(rA)/oligo(dT)16 template-primer in a total volume of 50 μL. The assay constituents were 50 mM Tris/HCl, 50 mM NaCl, 1 mM EDTA, 6 mM MgCl2, 5 μM dTTP, 0.15 μCi [^3H] dTTP, 5 μg/ml poly (rA) pre annealed to 2.5 μg/ml oligo (dT)16 and a range of inhibitor concentrations in a final concentration of 10% DMSO. Reactions were initiated by adding 4 nM HIV-1 RT and after incubation at 37° C. for 30 min, they were stopped by the addition of 50 μl ice cold 20% TCA and allowed to precipitate at 4° C. for 30 min. The precipitates were collected by applying vacuum to the plate and sequentially washing with 3×200 μl of 10% TCA and 2×200 μl 70% ethanol. Finally, the plates were dried and radioactivity counted in a Packard TopCounter after the addition of 25 μl scintillation fluid per well. IC50's were calculated by plotting % inhibition versus log10 inhibitor concentrations.

HIV = experiment: Anti-viral Assay (method of Pauwels et al.); type: cell-based; conditions: Human immunodeficiency virus 1
Experimental: Anti-viral assays were carried out by the method described by R. E. Pauwels et al. J. Virol. Methods 1988 20(4):309–322.

[1] = purified recombinant enzyme, poly(rA)/oligo(dT)16 template-primer, 37° C. 30 min, read-out: RT inhibition

SMILES	IC50 (HIV-1 RT) [nM]	melting point [°C]	EC50 (HIV) [nM]	IC50 (HIV-1 RT; [1]) [nM]
CCC(=O)NS(=O)(=O)c1ccc(NC(=O)Cc2ccc(Br)c(Oc3cc(Cl)cc(C#N)c3)c2F)c(Cl)c1 [Compound I-63, 2-[4-Bromo-3-(3-chloro-5-cyano-phenoxy)-2-fluoro-phenyl]-N-(2-chloro-4-propionylsulfamoyl-phenyl)-acetamide; sodium salt]	5.8	–	–	–
Cc1ccc(CC(=O)Nc2ccc(S(N)(=O)=O)cc2Cl)c(F)c1Oc1cc(Cl)cc(C#N)c1 [Compound I-83, 2-[3-(3-Chloro-5-cyano-phenoxy)-2-fluoro-4-methyl-phenyl]-N-(2-chloro-4-sulfamoyl-phenyl)-acetamide]	–	228.9 to 230.6	0.9	8.1
Cc1ccc(CC(=O)Nc2ccc(S(N)(=O)=O)cc2Cl)c(F)c1Oc1cc(C#N)cc(C(F)F)c1 [Compound I-84, N-(2-Chloro-4-sulfamoyl-phenyl)-2-[3-(3-cyano-5-difluoromethyl-phenoxy)-2-fluoro-4-methyl-phenyl]-acetamide]	–	218 to 218.7	0.4	14
N#Cc1cc(Cl)cc(Oc2c(Br)ccc(CC(=O)Nc3ccc(S(N)(=O)=O)cc3Cl)c2F)c1 [Compound I-109, 2-[4-Bromo-3-(3-chloro-5-cyano-phenoxy)-2-fluoro-phenyl]-N-(2-chloro-4-sulfamoyl-phenyl)-acetamide]	13.6	165 to 166.6	1.3	–
CC(C)[C@H](N)C(=O)NS(=O)(=O)c1ccc(NC(=O)Cc2ccc(Cl)c(Oc3cc(Cl)cc(C#N)c3)c2F)c(Cl)c1.[Na] [Compound I-127, N-[4-((S)-2-Amino-3-methyl-butyrylsulfamoyl)-2-chloro-phenyl]-2-[4-chloro-3-(3-chloro-5-cyano-phenoxy)-2-fluoro-phenyl]-acetamide; sodium salt]	5.9	219.4 to 220.2	–	–
CCCC(=O)NS(=O)(=O)c1ccc(NC(=O)Cc2ccc(Cl)c(Oc3cc(Cl)cc(C#N)c3)c2F)c(Cl)c1.[Na] [Compound I-138, N-(4-Butyrylsulfamoyl-2-chloro-phenyl)-2-[4-chloro-3-(3-chloro-5-cyano-phenoxy)-2-fluoro-phenyl]-acetamide; sodium salt]	4.5	157.2 to 157.9	–	–
CCc1ccc(CC(=O)Nc2ccc(S(N)(=O)=O)cc2Cl)cc1Oc1cc(C#N)cc(C(F)F)c1 [Compound I-140, N-(2-Chloro-4-sulfamoyl-phenyl)-2-[3-(3-cyano-5-difluoromethyl-phenoxy)-4-ethyl-phenyl]-acetamide]	–	191.8 to 192.5	0.4	21
N#Cc1cc(Oc2c(Br)ccc(CC(=O)Nc3ccc(S(N)(=O)=O)cc3Cl)c2F)cc(C(F)F)c1 [Compound I-165, 2-[4-Bromo-3-(3-cyano-5-difluoromethyl-phenoxy)-2-fluoro-phenyl]-N-(2-chloro-4-sulfamoyl-phenyl)-acetamide]	–	205.4 to 207.7	0.4	21
Cc1cc(S(N)(=O)=O)ccc1NC(=O)Cc1ccc(Br)c(Oc2cc(C#N)cc(C(F)F)c2)c1F [Compound I-169, 2-[4-Bromo-3-(3-cyano-5-difluoromethyl-phenoxy)-2-fluoro-phenyl]-N-(2-methyl-4-sulfamoyl-phenyl)-acetamide]	–	223.9 to 225	0.4	27
CCc1ccc(CC(=O)Nc2ccc(S(N)(=O)=O)cc2Cl)c(F)c1Oc1cc(C#N)cc(C(F)F)c1 [Compound I-179, N-(2-Chloro-4-sulfamoyl-phenyl)-2-[3-(3-cyano-5-difluoromethyl-phenoxy)-4-ethyl-2-fluoro-phenyl]-acetamide]	–	239.6 to 240.7	0.4	7.4
CCc1ccc(CC(=O)Nc2ccc(S(N)(=O)=O)cc2C)c(F)c1Oc1cc(C#N)cc(C(F)F)c1 [Compound I-180, 2-[3-(3-Cyano-5-difluoromethyl-phenoxy)-4-ethyl-2-fluoro-phenyl]-N-(2-methyl-4-sulfamoyl-phenyl)-acetamide]	–	237.6 to 238.4	–	9.1
N#Cc1cc(Cl)cc(Oc2c(Cl)ccc(CC(=O)Nc3ccc(S(=O)(=O)NC(=O)CCC(=O)O)cc3Cl)c2F)c1 [Compound I-188, 4-(3-Chloro-4-{2-[4-chloro-3-(3-chloro-5-cyano-phenoxy)-2-fluoro-phenyl]-acetylamino}-benzenesulfonylamino)-4-oxo-butyric acid]	–	143.4 to 144	–	–
COc1ccc(CC(=O)Nc2ccc(S(N)(=O)=O)cc2Cl)c(F)c1Oc1cc(Cl)cc(C#N)c1 [Compound I-190, 2-[3-(3-Chloro-5-cyano-phenoxy)-2-fluoro-4-methoxy-phenyl]-N-(2-chloro-4-sulfamoyl-phenyl)-acetamide]	–	212 to 212.8	–	–
COc1ccc(CC(=O)Nc2ccc(S(N)(=O)=O)cc2C)c(F)c1Oc1cc(Cl)cc(C#N)c1 [Compound I-191, 2-[3-(3-Chloro-5-cyano-phenoxy)-2-fluoro-4-methoxy-phenyl]-N-(2-methyl-4-sulfamoyl-phenyl)-acetamide]	–	239.9 to 240.8	–	–
